According to patent US4443478A, “Prostaglandin analogues” (Ono Pharmaceutical Co., Ltd., priority 1981, dated 1984):
≈ marks a conversion by molar mass, not a printed value.

Assays:
blood pressure = experiment: fall in blood pressure in the allobarbital-anaesthetized dog; type: in vivo; details: intravenous
[1] = system: α-naphthylisothiocyanate-induced liver damage; experiment: α-naphthylisothiocyanate-induced liver damage in rats; type: in vivo; details: rat, oral, 100 μg/kg, in comparison with controls
uterine contraction = experiment: stimulation of uterine contraction in the pregnant female rat; type: in vivo; details: 20th day of gestation, intravenous
[2] = system: carbon tetrachloride-induced liver damage; experiment: carbon tetrachloride-induced liver damage in rats; type: in vivo; details: rat, in comparison with controls
male mice = experiment: acute toxicity by oral administration; type: in vivo, mouse
Method: On the other hand, the compounds of the present invention were confirmed that their toxicities (i.e. LD50) were more than […] animal body weight by oral administration. Therefore, the compounds of the present invention may be considered to be sufficiently safe and suitable for medical use.

stress ulceration = experiment: inhibition of stress ulceration in rats; type: in vivo; details: rat, oral
Source text: For example, in standard laboratory tests, (i) in stress ulceration of rats [produced according to the methods of Takagi and Okabe, Jap.

[3] = system: D(+)-galactoseamine-induced liver damage; experiment: D(+)-galactoseamine-induced liver damage in rats; type: in vivo; details: rat, oral, 100 μg/kg, in comparison with control
[4] = system: adenosine diphosphate-induced blood platelet aggregation; experiment: inhibition of adenosine diphosphate-induced blood platelet aggregation in platelet-rich plasma; type: cell-based; details: Homo sapiens; platelet-rich plasma of humans; read-out: concentration producing 50% inhibition of adenosine diphosphate-induced blood platelet aggregation

Compound | duration of fall in blood pressure (blood pressure; 0.5 μg/kg) [min] | fall in blood pressure (blood pressure; 0.5 μg/kg) [mm Hg] | inhibition of plasma GOT [1] [%] | inhibition of plasma GPT [1] [%] | inhibition of plasma bilirubin [1] [%] | stimulation of uterine contraction (uterine contraction; 20 μg/kg) | inhibition of plasma GOT (glutamic oxalacetic transaminase) ([2]; oral, 50 μg/kg) [%] | inhibition of plasma GPT (glutamic pyruvic transaminase) ([2]; oral, 50 μg/kg) [%] | deaths in acute toxicity test (male mice; 5 mg/kg) | deaths in acute toxicity test (male mice; 10 mg/kg) | IC50 [4] [µg/mL] | further results
CCCC[C@H](C)C[C@H](O)/C=C/[C@H]1[C@H](O)CC(=O)[C@@H]1CC(=O)CCCCC(=O)CO (relative stereo) [1-Hydroxymethyl-11α,15(S)-dihydroxy-17(S),20-dimethylprost-trans-13-ene-1,6,9-trione] | 29 | 15 | 49.0 | 53.7 | 21.2 | stimulated uterine contraction | 58.0 | 59.7 | no deaths in 10 cases | no deaths in 10 cases | – | duration of fall in blood pressure (blood pressure; 0.3 μg/kg): 14 min; fall in blood pressure (blood pressure; 0.3 μg/kg): 6 mm Hg; inhibition of plasma GOT (glutamic oxalacetic transaminase) ([2]; subcutaneous, 20 μg/kg): 61.4%; inhibition of plasma GPT (glutamic pyruvic transaminase) ([2]; subcutaneous, 20 μg/kg): 48.7%; inhibition of stress ulceration (stress ulceration; 20 μg/kg): 56.8%; inhibition of stress ulceration (stress ulceration; 50 μg/kg): 91.8%
CCCC1CC([C@H](O)/C=C/[C@H]2[C@H](O)CC(=O)[C@@H]2CC(=O)CCCCC(=O)CO)C1 (relative stereo) [1-hydroxymethyl-11α,15(S)-dihydroxy-15-(3-propylcyclobutyl)-16,17,18,19,20-pentanorprost-trans-13-ene-1,6,9-trione] | – | – | 53.1 | 61.3 | 30.3 | – | – | – | – | – | – | –
CCCCC1CCC([C@H](O)/C=C/[C@H]2[C@H](O)CC(=O)[C@@H]2CC(=O)CCCCC(=O)CO)C1 (stereo partly drawn) [1-Hydroxymethyl-11α,15(S)-dihydroxy-15-(3-butylcyclopentyl)-16,17,18,19,20-pentanorprost-trans-13-ene-1,6,9-trione] | 17 | 20 | 30.3 | 41.7 | 15.2 | stimulated uterine contraction | 54.9 | 48.6 | – | 2 deaths in 5 cases | 0.0036 to 0.072 (≈ 0.00825 to 0.165 µM) | duration of fall in blood pressure (blood pressure; 1.0 μg/kg): 40 min; fall in blood pressure (blood pressure; 1.0 μg/kg): 47 mm Hg; stimulation of uterine contraction (uterine contraction; 50 μg/kg): stimulated uterine contraction; inhibition of plasma GOT [3]: 57.0%; inhibition of plasma GPT [3]: 54.0%; inhibition of plasma bilirubin [3]: 63.0%
CCCC1CCC([C@H](O)/C=C/[C@H]2[C@H](O)CC(=O)[C@@H]2CC(=O)CCCCC(=O)CO)C1 (stereo partly drawn) [1-Hydroxymethyl-11α,15(S)-dihydroxy-15-(3-propylcyclopentyl)-16,17,18,19,20-pentanorprost-trans-13-ene-1,6,9-trione] | – | – | – | – | – | – | 46.7 | 45.1 | one death in 5 cases | – | 0.0018 to 0.018 (≈ 0.00426 to 0.0426 µM) | duration of fall in blood pressure (blood pressure; 0.1 μg/kg): 9 min; fall in blood pressure (blood pressure; 0.1 μg/kg): 20 mm Hg; duration of fall in blood pressure (blood pressure; 0.2 μg/kg): 23 min; fall in blood pressure (blood pressure; 0.2 μg/kg): 35 mm Hg
